{"source": "paper PMC11284796", "about": "“Structure–Activity Relationship Studies of Aryl Sulfoxides as Reversible Monoacylglycerol Lipase Inhibitors” (Journal of Medicinal Chemistry, 2024)", "key": {"Liver S9 stability assay": {"experiment": "Liver S9 stability assay", "format": "in vitro ADME", "settings": "mouse, liver S9 fraction", "experimental": "The compound was incubated with liver S9 fraction and the amount of remaining unmetabolized compound was determined with liquid chromatography–mass spectrometry/mass spectrometry (LC-MS/MS) in a time-dependent manner. The results are presented as intrinsic clearance (Clint), which is calculated as V × 0.693/t1/2 (μL/min/mg) in which V is the volume of incubation in μL per mg protein and t1/2 is the measured half-life in min. […] This is not surprising, because the compound has high lipophilicity (calculated octanol–water partition coefficient (cLog P) of 4.9) and contains a potential metabolically labile ester functionality. Since it is well-known that reducing lipophilicity may increase metabolic stability, several analogues (compound ±56–±60) were synthesized in which phenyl ring A was replaced with different pyridyls (compound ±56–±59) or in which the ethyl ester was substituted with a more polar group (compound ±60). […] The metabolic stability of these compounds was, however, not improved (Table 7). […] To test this hypothesis, compound ±61 was synthesized in which the ester moiety was replaced by a metabolically stable ether.\nThe rate of metabolism was assessed by incubation at 37 °C, pH 7.4 with mouse liver S9 fraction (1 mg protein/mL) supplemented with 5 mM NADP, 25 mM G6P, and 25 U/ml G6PD. The concentration of the initial substrate is 1 μM. Substrate depletion over a time course was measured by LC-MS/MS following protein precipitation. Amitryptilin (2.5 μM in ACN) was used as an internal standard. The ln peak area ratio (compound peak area/internal standard peak area) is plotted against time and the gradient of the line is determined. The following equations were used to calculate the intrinsic clearance:\nElimination rate constant (k) = (-gradient); half-life (t1/2, min) = 0.693/k; V (μL/mg) = volume of incubation (μL)/protein in the incubation (mg); intrinsic clearance (Clint, μL/min/mg) = V × 0.693/t1/2."}, "mice [1]": {"test_system": "mice", "parameters": "method as in PMID 38052772", "settings": "listed as LEI-515; cited from earlier work"}, "mice [2]": {"test_system": "mice", "parameters": "method as in PMID 38052772", "settings": "listed as LEI-515; cited from earlier work", "remark": "listed apart in the source"}, "2-AG levels [3]": {"test_system": "2-AG levels", "parameters": "method as in PMID 38052772", "settings": "cited from earlier work"}, "mice [4]": {"test_system": "mice", "parameters": "method as in PMID 38052772", "settings": "listed as LEI-515; cited from earlier work", "remark": "listed apart in the source"}, "2-AG levels [5]": {"test_system": "2-AG levels", "parameters": "method as in PMID 38052772", "settings": "cited from earlier work", "remark": "listed apart in the source"}}, "note": "Entries after “also recorded” stand apart in the source; their conditions may differ."}
{"smiles": "CCC(F)(F)C(=O)C[S+]([O-])c1ccc(C(=O)N2CCN(c3cccc(Cl)c3)[C@@H](C)[C@@H]2C)cc1Cl", "note": "(mixture of isomers) [±73, 1-((2-Chloro-4-(4-(3-chlorophenyl)-trans-2,3-dimethylpiperazine-1-carbonyl)phenyl)sulfinyl)-3,3-difluoropentan-2-one]", "values": [{"measurement": "microsomal CLint at 1 μM", "setting": "Liver S9 stability assay; pH 7.4, mouse liver S9 fraction 1 mg protein/mL, 1 μM substrate, 37 °C, pH 7.4", "value": 30, "unit": "µL/min/mg"}, {"measurement": "microsomal CLint at 1 μM", "setting": "Liver S9 stability assay; pH 7.4, supplementary csv", "value": 30, "unit": "µL/min/mg"}, {"measurement": "inflammation in an acute liver injury mouse model", "setting": "mice [1]", "value": "reduced inflammation"}, {"measurement": "chemotherapy-induced neuropathic pain in mice", "setting": "mice [2]", "value": "suppressed chemotherapy-induced neuropathic pain; also recorded: suppress chemotherapy-induced neuropathic pain"}, {"measurement": "2-AG levels in peripheral mouse organs in vivo", "setting": "2-AG levels [3]", "value": "increased"}, {"measurement": "2-AG levels in the brain", "setting": "2-AG levels [3]; mouse, oral administration", "value": "not in the brain"}, {"measurement": "2-AG levels in mouse colon and lung", "setting": "2-AG levels [3]; oral administration", "value": "increased"}, {"measurement": "central nervous system adverse effects or physical dependence", "setting": "mice [4]", "value": "without inducing central nervous system adverse effects or physical dependence; also recorded: did not induce central nervous system (CNS) adverse effects or physical dependence"}, {"measurement": "2-AG levels in live cells", "setting": "2-AG levels [5]", "value": "increased"}]}
